Reference: US4567302A, “Polymeric quaternary ammonium salts possessing antimicrobial activity and methods for preparation and use thereof” (priority 1984, dated 1986)

Tested on: microorganisms
Experiment: Biocidal activity evaluation, overall comparison in words
Assay type: cell-based
Method: The biocidal activity evaluations of the present invention quaternary ammonium salts and mixtures thereof as well as of commercially available biocides (for comparison purposes) were conducted using the Dynatech MIC-2000 system (available from Dynatech Laboratories, Inc., Alexandria, Va.). The Dynatech MIC-2000 system provides a quantitative factor, namely the specific concentration of the compound that inhibits the growth of a test organism.
All compounds were prepared for testing by initially making a 1.0% w/v solution. These were then serially diluted so as to yield concentrations of sample in a range of 2000-16 mg/l. Testing was carried out under aseptic conditions in Trypticase Soy Broth (BBL, Div. Becton, Dickinson & Co., Cockeysville, MD). Each test was performed in duplicate and run at pH levels of 7.0, 8.0, and 9.0. The pH of the test medium was adjusted by the addition of 10% w/v NaOH before sterilization.
Organisms utilized for MIC testing were all purchased from the American Type Culture Collection (ATCC), Rockville, MD. The six organisms chosen for these tests were:
Inocula were prepared in Brain Heart Infusion Broth (BHI, Difco Laboratories, Detroit, MI), and standardized to 3.0×10^8 CFU/ml in 0.85% sterile saline. […] Plates were read and evaluated at this time, and results reported in mg/l of compound that inhibited the growth of the test organisms.

O=[N+]([O-])C(Br)(CO)CO [Bronopol]
biocidal activity (in words): more active than the quaternary ammonium salts of the present invention
